Data as given in paper PMC9785278, “3-(1,2,3-Triazol-4-yl)-β-Carbolines and 3-(1H-Tetrazol-5-yl)-β-Carbolines: Synthesis and Evaluation as Anticancer Agents” (Pharmaceuticals, 2022).

Tests used:
HCT116 cells [1] = assay: SRB antiproliferative assay, HCT116 (wt p53); type: cell-based; conditions: Homo sapiens, HCT-116, 48 h of treatment, mean ± SEM
From the text: (§1) Human colorectal adenocarcinoma HCT116 cell lines expressing p53 and its p53-null isogenic derivative (HCT116 p53^−/−) were provided by B. Vogelstein (The Johns Hopkins Kimmel Cancer Center, Baltimore, MD, USA). Human colorectal adenocarcinoma SW837, HT29, pancreatic carcinoma PANC-1, breast adenocarcinoma MCF-7, hepatocarcinoma HEPG2, melanoma A375, normal human foreskin fibroblasts HFF-1, and normal human colon CCD-18Co cell lines were purchased from ATCC (Rockville, MD, USA). The cancer cell lines were routinely cultured with RPMI-1640 medium from Biowest (HCT116, HCT116 p53^−/−, SW837, HT29, A375, MCF-7, HEPG-2, and […]) or DMEM with 5% glucose (HFF-1) and supplemented with 10% fetal bovine serum from Gibco (Alfagene, Lisboa, Portugal). All cells were maintained in a humidified incubator at 37 °C and 5% CO2.
(§2) Human cell lines were seeded in 96-well plates at a density of 5.0 × 10^3 (HCT116 p53 ^−/−, HCT116 wt, HT29, SW837, CCD-18Co, HFF-1, and MCF-7 cell lines) or 4.5 × 10^3 (A375, HEPG2 and PANC-1 cell lines) cells per well, for 24 h. Cells were treated with the appropriate compound, with serial dilutions ranging from 0.2 to 50 µM, for 48 h. Following the incubation, the effects on cell proliferation were evaluated through the SRB assay as stated by Ramos et al.. The IC50 values were determined using the software GraphPad Prism version 9.0.

HCT116 p53−/− cells = assay: SRB antiproliferative assay, HCT116 p53−/−; type: cell-based; conditions: Homo sapiens, HCT-116, 48 h of treatment, p53 knockout, mean ± SEM
From the text: as §1, §2

SW837 cells = assay: SRB antiproliferative assay, SW837; type: cell-based; conditions: Homo sapiens, 48 h of treatment, mean ± SEM
From the text: as §1, §2

HT29 cells = assay: SRB antiproliferative assay, HT29; type: cell-based; conditions: Homo sapiens, HT-29, 48 h of treatment, mean ± SEM
From the text: as §1, §2

CCD-18Co cells = assay: SRB cytotoxicity assay, normal colon CCD-18Co; type: cell-based; conditions: 48 h of treatment, normal human colon cell line, mean ± SEM
From the text: as §1, §2

HFF-1 cells = assay: SRB assay, normal foreskin fibroblasts HFF-1; type: cell-based; conditions: 48 h of treatment, normal human foreskin fibroblasts, mean ± SEM
From the text: as §1, §2

PANC-1 cells = assay: SRB antiproliferative assay, PANC-1; type: cell-based, human; conditions: 48 h of treatment, mean ± SEM
From the text: as §1, §2

A375 cells = assay: SRB antiproliferative assay, A375; type: cell-based, human; conditions: 48 h of treatment, mean ± SEM
From the text: as §1, §2

HEPG2 cells = assay: SRB antiproliferative assay, HEPG2; type: cell-based, human; conditions: 48 h of treatment, mean ± SEM
From the text: as §1, §2

MCF-7 cells = assay: SRB antiproliferative assay, MCF-7; type: cell-based, human; conditions: 48 h of treatment, mean ± SEM
From the text: as §1, §2

HCT116 cells [2] = assay: Annexin-V apoptosis assay, HCT116; type: cell-based, human; conditions: HCT116, 4.5 and 9.0 μM, 48 h, flow cytometry PI/Annexin-V
Method: The analysis of apoptotic cell death was performed essentially as described by Ramos et al.. Briefly, 1.5 × 10^5 HCT116 cells/well were seeded in 6-well plates, allowed to adhere overnight, and then treated with 4.5 and 9.0 μM of compound 1a. After 48 h of treatment, cells were stained using the Annexin V-FITC Apoptosis Detection Kit I from BD Biosciences (Enzifarma, Porto, Portugal), according to the manufacturer’s instructions. The AccuriTM C6 flow cytometer and the BD Accuri C6 software (BD Biosciences) were used.

[3] = system: breast adenocarcinoma (MCF-7); design: method as in PMID 31247374; conditions: cited from earlier work
[4] = system: ovarian carcinoma (OVCAR-3); design: method as in PMID 31247374; conditions: cited from earlier work
leukemia (K-562) = system: leukemia (K-562); design: method as in PMID 31247374; conditions: cited from earlier work
[5] = system: renal adenocarcinoma (786-0); design: method as in PMID 31247374; conditions: cited from earlier work

Compound	IC50 (HCT116 cells [1])	IC50 (HCT116 p53−/− cells)	IC50 (SW837 cells)	IC50 (HT29 cells)	melting point	IC50 (CCD-18Co cells)	further results
COC(=O)c1cc2c([nH]c3ccccc32)c(-c2ccccc2)n1 [14a]	> 50 µM	> 50 µM					
COC(=O)c1cc2c([nH]c3ccccc32)c(-c2ccccc2Cl)n1 [14e]	> 50 µM	> 50 µM					
Fc1ccc(-c2nc(-c3nnn[nH]3)cc3c2[nH]c2ccccc23)cc1 [1d]							IC50 [4]: 0.27 µM
Clc1ccc(-n2cc(-c3cc4c([nH]c5ccccc54)c(-c4ccccc4Cl)n3)nn2)cc1 [13f, 3-(1-(p-Chlorophenyl)-1H-1,2,3-triazol-4-yl)-1-(o-chlorophenyl)-β-carboline]	> 50 µM	> 50 µM	> 50 µM	> 50 µM	219.7 to 221.3 °C	> 50 µM	
COC(=O)c1cc2c([nH]c3ccccc32)c(-c2ccc(OC)cc2)n1 [14b]	> 50 µM	> 50 µM					
CN(C)c1ccc(-c2nc(-c3cn(-c4ccc(Cl)cc4)nn3)cc3c2[nH]c2ccccc23)cc1 [13d, 3-(1-(p-Chlorophenyl)-1H-1,2,3-triazol-4-yl)-1-(p-dimethylaminophenyl)-β-carboline]	> 50 µM	> 50 µM	> 50 µM	> 50 µM	244.2 to 245.6 °C	> 50 µM	
Fc1ccc(-c2nc(-c3cn(-c4ccc(Cl)cc4)nn3)cc3c2[nH]c2ccccc23)cc1 [13b, 3-(1-(p-Chlorophenyl)-1H-1,2,3-triazol-4-yl)-1-(p-fluorophenyl)-β-carboline]	> 50 µM	> 50 µM	> 50 µM	> 50 µM	237.3 to 238.1 °C	> 50 µM	
O=[N+]([O-])c1cccc(-c2nc(-c3cn(-c4ccc(Cl)cc4)nn3)cc3c2[nH]c2ccccc23)c1 [13e, 3-(1-(p-Chlorophenyl)-1H-1,2,3-triazol-4-yl)-1-(m-nitrophenyl)-β-carboline]	> 50 µM	> 50 µM	> 50 µM	> 50 µM	237.3 to 239.1 °C	> 50 µM	
COC(=O)c1cc2c([nH]c3ccccc32)c(-c2cccc([N+](=O)[O-])c2)n1 [14d]	> 50 µM	> 50 µM					

Second part, led by results:

IC50 (HCT116 cells [1])	IC50 (HCT116 p53−/− cells)	IC50 (SW837 cells)	IC50 (HT29 cells)	melting point	Compound	IC50 (CCD-18Co cells)	further results
4.3 ± 0.08 µM	4.2 ± 0.31 µM	25 ± 1.63 µM	5.9 ± 1.19 µM		COc1ccc(-c2nc(-c3nnnn3Cc3ccccc3)cc3c2[nH]c2ccccc23)cc1 [1b]	3.4 ± 0.29 µM	
4.5 ± 0.05 µM	4.6 ± 0.43 µM	44 ± 0.82 µM	9 ± 0.55 µM		c1ccc(Cn2nnnc2-c2cc3c([nH]c4ccccc43)c(-c3ccccc3)n2)cc1 [1a]	26 ± 0.82 µM	IC50 (HFF-1 cells): 29 ± 1.5 µM; IC50 (PANC-1 cells; listed as C00001): 4 ± 0.4 µM; IC50 (PANC-1 cells; Homo sapiens, PANC-1, 48 h): < 8 µM; IC50 (A375 cells; listed as C00001): 5.6 ± 0.2 µM; IC50 (A375 cells; Homo sapiens, A-375, 48 h): < 8 µM; IC50 (HEPG2 cells; listed as C00001): 7.5 ± 1.27 µM; IC50 (HEPG2 cells; Homo sapiens, HepG2, 48 h): < 8 µM; IC50 (MCF-7 cells; listed as C00001): 7.7 ± 0.7 µM; IC50 (MCF-7 cells; Homo sapiens, MCF7, 48 h): < 8 µM; Apoptotic cell death (Annexin-positive cells) (HCT116 cells [2]): associated with apoptotic cell death; IC50 [3]: 4.4 µM
3.4 ± 0.16 µM	3.3 ± 0.73 µM	29 ± 3.74 µM	9.6 ± 1.18 µM		Fc1ccc(-c2nc(-c3nnnn3Cc3ccccc3)cc3c2[nH]c2ccccc23)cc1 [1c]	7.5 ± 0.16 µM	IC50 [4]: < 1 µM; IC50 (leukemia (K-562)): < 1 µM; IC50 [5]: < 1 µM; IC50 [3]: < 1 µM
15 ± 1.41 µM	18 ± 0.47 µM				COC(=O)c1cc2c([nH]c3ccccc32)c(-c2ccc(N(C)C)cc2)n1 [14c]		
39 ± 2.16 µM	43 ± 0.82 µM	> 50 µM	> 50 µM	207.5 to 207.9 °C	Clc1ccc(-n2cc(-c3cc4c([nH]c5ccccc54)c(-c4ccccc4)n3)nn2)cc1 [13a, 3-(1-(p-Chlorophenyl)-1H-1,2,3-triazol-4-yl)-1-phenyl-β-carboline]	> 50 µM	
32 ± 2.45 µM	> 50 µM	> 50 µM	> 50 µM	219.7 to 221.3 °C	COc1ccc(-c2nc(-c3cn(-c4ccc(Cl)cc4)nn3)cc3c2[nH]c2ccccc23)cc1 [13c, 3-(1-(p-Chlorophenyl)-1H-1,2,3-triazol-4-yl)-1-(p-methoxyphenyl)-β-carboline]	> 50 µM	
0.6 ± 0.05 µM	0.9 ± 0.07 µM	0.9 ± 0.07 µM	0.7 ± 0.1 µM		COc1cc([C@@H]2c3cc4c(cc3[C@@H](O[C@@H]3O[C@@H]5CO[C@@H](C)O[C@H]5[C@H](O)[C@H]3O)[C@H]3COC(=O)[C@H]23)OCO4)cc(OC)c1O [Etoposide, reference compound]	0.5 ± 0.07 µM	IC50 (HFF-1 cells): 1.1 ± 0.01 µM; IC50 (PANC-1 cells; Homo sapiens, PANC-1, 48 h): 3.1 ± 0.05 µM; IC50 (A375 cells; Homo sapiens, A-375, 48 h): 0.9 ± 0.07 µM; IC50 (HEPG2 cells; Homo sapiens, HepG2, 48 h): 1.7 ± 0.2 µM; IC50 (MCF-7 cells; Homo sapiens, MCF7, 48 h): 2.1 ± 0.03 µM
